In assay [1] the test system is Chinese hamster ovary (CHO) cells. The assay can be described thus: Protein synthesis assay (puromycin incorporation, western blot). The following applies: without Tg, 2 hours, media alone = 100%. The format is cell-based. The method, then:
Chinese hamster ovary (CHO) cells were maintained at 37° C. and 5% CO2 in Dulbecco's Modified Eagle's Media (DMEM) supplemented with 10% fetal bovine serum, 2 mM L-glutamine, 100 U/ml penicillin, and 100 μg/ml streptomycin. After reaching 80% of confluence, cells were detached and seeded on 6 well plates in complete media, allowed to recover overnight and treated for 2 hours with 1 μM of the test compound (to assess protein synthesis levels in unstressed condition), or for 2 hours with 300 nM Tg in the presence of 1 μM of the test compound (to assess the recovery of protein synthesis in a stressed condition). Cells with Tg alone were used as controls.
After the 2 hours treatments, media were replaced by adding 10 μg/ml puromycin (Sigma Aldrich #P8833) in complete media for 30 min. Media were removed and cells were lysed with SDS-PAGE lysis buffer. Lysates were transferred to 1.5 ml tubes and sonicated for 3 min and total protein amount were quantified using BCA Protein Assay Kit (Pierce). Equal amount of protein (30 μg) was loaded on SDS-PAGE gels. Proteins were transferred onto […] PVDF membranes (BioRad) and probed with primary antibodies diluted in Tris-buffered saline supplemented with 0.1% Tween 20 (Merck #S6996184 505) and 3% bovine serum albumin (Rockland #BSA-50).
Puromycin (12D10) (Merck #MABE343) and […] (Sigma Aldrich #A5441) antibodies were used as primary antibody. A HRP-conjugated secondary antibody (Rockland) was employed to detect immune-reactive bands using enhanced chemiluminescence (ECL Western Blotting Substrate, Pierce). Quantification of protein bands was done by densitometry using ImageJ software.
Percent increase of protein synthesis in unstressed cells (without Tg treatment) in the presence of media alone or certain test compounds is shown in Table 3. The percentage levels were normalized to the media alone condition, which correspond to 100% protein synthesis.
Percent recovery of protein synthesis in stressed cells (with Tg treatment) due to the test compounds at 1 μM is also shown in Table 3. The levels were normalized to the media alone and Tg alone conditions, which correspond to 100% and 0% respectively.

The test system of the next assay is ATF4. In words: ATF4 expression inhibition assay (ATF4 luciferase reporter, thapsigargin-stressed). The format is cell-based. Particulars: Homo sapiens, HEK-293T; HEK293T cells carrying ATF4 luciferase reporter, 100 nM thapsigargin, 3 hours. The method, then: The ATF4 reporter was prepared by fusing the human full length 5′UTR of ATF4 (NCBI Accession No. BC022088.2) upstream of the firefly luciferase coding sequence lacking the initiator methionine. The fused sequence was cloned into pLenti-EF1a-C-Myc-DDK-IRES-Puro cloning vector (Origen #PS100085) using standard methods. Virus production was carried out by using Lenti-X™ Packaging Single Shots Protocol (Clonetech #631276). Viral particles were used to transduce HEK293T cells (ATCC #CRL-3216, ATCC Manassas, Va.), which were subsequently selected with puromycin to generate stable cell line. Cells were maintained at 37° C. and 5% CO2 in DMEM-F12 (Hyclone #SH30023.02) supplemented with 10% heat-inactivated fetal bovine serum (Gibco #16000-044), 2 mM L-glutamine (Gibco #25030-081), 100 U/ml penicillin, and 100 μg/ml streptomycin (Gibco #15140-122).
HEK293T cells carrying the ATF4 luciferase reporter were plated on 96-well plates (Nunc) at 10,000 cells per well. Cells were treated two days after seeding with 100 nM thapsigargin (Tg) (Sigma-Aldrich #T9033) in the presence of different concentrations of selected compounds ranging from 1 nM to […]. Cells without treatment or cells treated with Tg alone were used as controls. Assay plates containing cells were incubated for 3 hours at 37° C.
Luciferase reactions were performed using Luciferase Assay System (Promega #E1501) as specified by the manufacturer. Luminescence was read with an integration time of 1 s and a gain of 110 using a Cytation-5 multi-mode microplate reader (BioTek). Relative luminescence units were normalized to Tg treatment (0% inhibition) and untreated cells (100% inhibition) and the percentage of ATF4 inhibition was calculated.
Accordingly, inhibition of ATF4 expression as a result of the test compound indicates suppression of the ISR pathway.

The test system of another assay is Balb/c mice. The assay can be described thus: Fasting-induced muscle atrophy, in vivo protein synthesis. Particulars: 10 mg/kg oral, 2 days fasting, versus vehicle-treated fasted mice; FIG. 1. How it is done:
Wild type eight-weeks-old male Balb/c mice obtained from the vivarium Fundaciön Ciencia & Vida Chile (Santiago, Chile) are used. Mice were housed in independent plastic cages in a room maintained at 25° C. with a 12-h:12-h light:dark cycle. […]
Upon collection, muscles were immediately frozen in liquid nitrogen and then stored at −80° C. […] Protein concentration in supernatants was determined using BCA Protein Assay Kit (Pierce). […]
Puromycin (12D10) (Merck Millipore, and β-actin (Sigma-Aldrich) antibodies were used as primary antibodies. A HRP-conjugated secondary antibody (Rockland) was employed to detect immune-reactive bands using enhanced chemiluminescence (ECL Western Blotting Substrate, Pierce). Quantification of protein bands was done by densitometry using ImageJ software.
Percent of protein synthesis in tibialis anterior of each mouse from fed or fasted animals treated with vehicle or compound 3 is shown in FIG. 1. The levels were normalized to β-actin expression and percentage was calculated as the percent relative to protein synthesis levels from control mice (Fed) which correspond to 100%.

Five compounds from US11318133B2, “Modulators of integrated stress response pathway” (Praxis Biotech LLC, priority 2019, dated 2022) can be followed below.

pIC50: −log10 of the molar value.

For `O=C(NN1CCN(C[C@@H](O)COc2ccc(Cl)c(F)c2)CC1)c1cn(C2CC2)c2cc(Cl)c(F)cc2c1=O` [Compound 5, (R)-7-chloro-N-(4-(3-(4-chloro-3-fluorophenoxy)-2-hydroxypropyl)piperazin-1-yl)-1-cyclopropyl-6-fluoro-4-oxo-1,4-dihydroquinoline-3-carboxamide], in assay [1], the “% Protein synthesis in unstressed cells (1 μM test compound)” value (from here on “% Protein synthesis in unstressed cells”) was determined as 173.2%. In addition, the negative-log IC50 (pIC50) in the assay with ATF4 is less than 5.00.

Take `O=C(NC1CCN(C[C@H](O)COc2ccc(Cl)c(F)c2)CC1)c1cn(C2CC2)c2cc(Cl)c(F)cc2c1=O` [Compound 3, (S)-7-chloro-N-(1-(3-(4-chloro-3-fluorophenoxy)-2-hydroxypropyl)piperidin-4-yl)-1-cyclopropyl-6-fluoro-4-oxo-1,4-dihydroquinoline-3-carboxamide]: in the assay with Balb/c mice, the “Protein synthesis in tibialis anterior of fasted mice” value is recorded as “improvement in protein synthesis in muscles”. Also, the “% Protein synthesis in unstressed cells” value in assay [1] worked out at 397.3%. The negative-log IC50 (pIC50) in the assay with ATF4 was less than 5.00.

With `O=C(NC1CCN(CC(O)COc2ccc(Cl)c(F)c2)CC1)c1cn(C2CC2)c2cc(Cl)c(F)cc2c1=O` (centres unmarked) [Compound 1, 7-chloro-N-(1-(3-(4-chloro-3-fluorophenoxy)-2-hydroxypropyl)piperidin-4-yl)-1-cyclopropyl-6-fluoro-4-oxo-1,4-dihydroquinoline-3-carboxamide], the “% Protein synthesis in unstressed cells” value in assay [1] is reported as 336.9%. Moreover, the pIC50 in the assay with ATF4 is less than 5.00.

For `O=C(NC1CCN(C[C@@H](O)COc2ccc(Cl)c(F)c2)CC1)c1cn(C2CC2)c2cc(Cl)c(F)cc2c1=O` [Compound 2, (R)-7-chloro-N-(1-(3-(4-chloro-3-fluorophenoxy)-2-hydroxypropyl)piperidin-4-yl)-1-cyclopropyl-6-fluoro-4-oxo-1,4-dihydroquinoline-3-carboxamide], in assay [1], the “% Protein synthesis in unstressed cells” value is recorded as 336.3%. The pIC50 in the assay with ATF4 was less than 5.00.

Regarding `O=C(NN1CCN(C[C@H](O)COc2ccc(Cl)c(F)c2)CC1)c1cn(C2CC2)c2cc(Cl)c(F)cc2c1=O` [Compound 6, (S)-7-chloro-N-(4-(3-(4-chloro-3-fluorophenoxy)-2-hydroxypropyl)piperazin-1-yl)-1-cyclopropyl-6-fluoro-4-oxo-1,4-dihydroquinoline-3-carboxamide], the “% Protein synthesis in unstressed cells” value in assay [1] turned out to be 244.5%. Also, the negative logarithm of the IC50 (pIC50) in the assay with ATF4 was less than 5.00.
